Source: patent US10577350B2, “Crystalline forms of (R)-N-((4-methoxy-6-methyl-2-oxo-1,2-dihydropyridin-3-yl)methyl)-2-methyl-1-(1-(1-(2,2,2-trifluoroethyl)piperidin-4-yl)ethyl)-1H-indole-3-carboxamide” (Constellation Pharmaceuticals, Inc., priority 2015, dated 2020)

Assays:
[1] = DVS moisture sorption at 25° C.; type: physicochemical; details: for Post DVS changes: after DVS, PLM, XRD, DSC, TGA; for DVS final sample wt lower than starting wt: after one full sorption cycle
Protocol: Moisture sorption profiles were generated isothermally at 25° C. using a Hiden IGAsorp moisture sorption analyzer. Samples were dried on the instrument under inert nitrogen at 40° C. for 60 min. Following drying the samples moisture sorption was determined by performing one full cycle of weight measurements at 0, 10, 20, 30, 40, 50, 60, 70, 80, 90 and 95% RH, with exposure time at each humidity set point dependent upon a minimum of 99% confidence in the F1 fit model or 15 min, with a maximum timeout of 120 min. The moisture sorption isotherms were plotted as a function of weight change (relative weight % of the dried starting weight) and % RH.

[2] = Aqueous solubility of solid forms (Table 2); type: physicochemical
[3] = Pharmacokinetics in rat after oral suspension; type: in vivo, rats; details: for Cmax / AUC(0-t): plasma; for AUC(0-t): read-out: AUC0-24 h
Description: Compound 365 was formulated similarly to Form C, suspension in 0.5% methylcellulose, 0.1% Tween 80 in purified water.

[4] = Pharmacokinetics in dog after oral suspension; type: in vivo; details: dogs (both genders), twice-daily oral; for Cmax / AUC(0-t): both sexes, dog, plasma, suspension in 0.5% methylcellulose; for AUC(0-t): read-out: AUC0-24 h
Protocol: Doses levels ranging from 50 mg/kg to 500 mg/kg were permitted to achieve pharmacological relevant systemic exposures.

[5] = Relative polymorph stability (statement); type: physicochemical; details: compared with the other forms
[6] = oral, rat, Table 8, formulated similarly to Form C (suspension in 0.5% methylcellulose, 0.1% Tween 80), 100 mg/kg/day
[7] = oral, rat, Table 8, formulated similarly to Form C (suspension in 0.5% methylcellulose, 0.1% Tween 80), 300 mg/kg/day
[8] = both sexes, rat, rats (both genders), once-daily oral, suspension in 0.5% methylcellulose, 0.1% Tween 80, 100 mg/kg/day
[9] = both sexes, rat, rats (both genders), once-daily oral, suspension in 0.5% methylcellulose, 0.1% Tween 80, 300 mg/kg/day
[10] = both sexes, rat, rats (both genders), once-daily oral, suspension in 0.5% methylcellulose, 0.1% Tween 80, 600 mg/kg/day

## COc1cc(C)[nH]c(=O)c1CNC(=O)c1c(C)n([C@H](C)C2CCN(CC(F)(F)F)CC2)c2ccccc12 [Amorphous, (R)—N-((4-methoxy-6-methyl-2-oxo-1,2-dihydropyridin-3-yl)methyl)-2-methyl-1-(1-(1-(2,2,2-trifluoroethyl)piperidin-4-yl)ethyl)-1H-indole-3-carboxamide]
[1]
  Post DVS changes: Amorphous
  DVS final sample wt lower than starting wt: same wt ~1%
[1]; at 95% RH, 25° C.
  DVS wt gain: 7.4% wt gain
[2]; pH 1.2
  Aqueous Solubility: pH 1.2: ≥921 ug/mL
[2]; pH 6.5
  Aqueous Solubility: pH 6.5: 18 ug/mL
[2]; pH 7.4
  Aqueous Solubility: pH 7.4: 140 ug/mL
[3]; [6]
  Cmax: 7160 ng/mL
  AUC(0-t): 24200 ng·h/mL
[3]; [7]
  Cmax: 9810 ng/mL
  AUC(0-t): 78400 ng·h/mL
[3]; rat, at both 100 and 300 mpk
  Cmax and AUC compared with Form C: slightly superior

## COc1cc(C)[nH]c(=O)c1CNC(=O)c1c(C)n([C@H](C)C2CCN(CC(F)(F)F)CC2)c2ccccc12 [Form A, (R)—N-((4-methoxy-6-methyl-2-oxo-1,2-dihydropyridin-3-yl)methyl)-2-methyl-1-(1-(1-(2,2,2-trifluoroethyl)piperidin-4-yl)ethyl)-1H-indole-3-carboxamide]
[1]
  Post DVS changes: 1% reduction
  DVS final sample wt lower than starting wt: wt ~0.8 lower %
[1]; at 80% RH, 25° C.
  DVS wt gain: 2% wt gain at
[1]; at 95% RH, 25° C.
  DVS wt gain: 5.3 wt gain at % wt
[2]; aqueous medium at pH 1.2 (buffer not named), pH 1.2, simulated gastric fluid, pH 1.2
  solubility: ≥ 961 µg/mL
[2]; pH 6.5
  Aqueous Solubility: pH 6.5: 31 ug/mL
[2]; pH 7.4
  Aqueous Solubility: pH 7.4: 28 ug/mL

## COc1cc(C)[nH]c(=O)c1CNC(=O)c1c(C)n([C@H](C)C2CCN(CC(F)(F)F)CC2)c2ccccc12 [Form B, (R)—N-((4-methoxy-6-methyl-2-oxo-1,2-dihydropyridin-3-yl)methyl)-2-methyl-1-(1-(1-(2,2,2-trifluoroethyl)piperidin-4-yl)ethyl)-1H-indole-3-carboxamide]
[1]
  Post DVS changes: No significant
[1]; at 95% RH, 25° C.
  DVS wt gain: 7.2% wt gain
[2]; pH 1.2
  Aqueous Solubility: pH 1.2: ≥970 ug/mL
[2]; pH 6.5
  Aqueous Solubility: pH 6.5: 120 ug/mL
[2]; pH 7.4
  Aqueous Solubility: pH 7.4: 112 ug/mL

## COc1cc(C)[nH]c(=O)c1CNC(=O)c1c(C)n([C@H](C)C2CCN(CC(F)(F)F)CC2)c2ccccc12 [Form C, (R)—N-((4-methoxy-6-methyl-2-oxo-1,2-dihydropyridin-3-yl)methyl)-2-methyl-1-(1-(1-(2,2,2-trifluoroethyl)piperidin-4-yl)ethyl)-1H-indole-3-carboxamide]
[4]; 0.1% Tween 80, 50 mg/kg BID
  Cmax: 6600 ng/mL
  AUC(0-t): 42200 ng·h/mL
[4]; 0.1% Tween 80, 150 mg/kg BID
  Cmax: 21300 ng/mL
  AUC(0-t): 176000 ng·h/mL
[4]; 0.1% Tween 80, 500 mg/kg BID
  Cmax: 34200 ng/mL
  AUC(0-t): 378000 ng·h/mL
[4]; between 50 and 500 mg/kg BID
  systemic exposure AUC(0-24), dependence on dose: increased mostly dose-proportionally
[1]; 25° C.
  DVS hygroscopicity: Non-
[1]
  Post DVS changes: No significant
[1]; at 95% RH, 25° C.
  DVS wt gain: ≤ 2.3% wt
[2]; pH 1.2
  Aqueous Solubility: pH 1.2: ≥913 ug/mL
[2]; pH 6.5
  Aqueous Solubility: pH 6.5: 14 ug/mL
[2]; pH 7.4
  Aqueous Solubility: pH 7.4: 9 ug/mL
[5]
  polymorph stability: the most stable polymorph
[3]; [8]
  Cmax: 6140 ng/mL
  AUC(0-t): 19600 ng·h/mL
[3]; [9]
  Cmax: 12800 ng/mL
  AUC(0-t): 86400 ng·h/mL
[3]; [10]
  Cmax: 56800 ng/mL
  AUC(0-t): 128000 ng·h/mL
[3]; rats (both genders), once-daily oral, between 100 and 600 mg/kg
  systemic exposure AUC(0-24), dependence on dose: increased dose-proportionally
